In patent US20140081025A1, “HETEROAROMATIC RING DERIVATIVE” (TAISHO PHARMACEUTICAL CO., LTD., priority 2011, published 2014):

Experiments:
[1] = molecular target: T1, human orexin 2 receptor (hOX2R) (Homo sapiens, UniProt O43614); assay: Measurement of orexin antagonist activity (intracellular Ca2+ fluorescence, FDSS) in CHO cells expressing hOX2R; type: cell-based; details: CHO cells forcibly expressing hOX2R; ligand (two-amino-acid-substituted human orexin-A) 3 nM; Fluo 4-AM; read-out: IC50 value OX2
T1 construct: expressed in transfected cells; host or cells: Chinese hamster ovary (CHO) cells
T1 sequence (O43614 1-444): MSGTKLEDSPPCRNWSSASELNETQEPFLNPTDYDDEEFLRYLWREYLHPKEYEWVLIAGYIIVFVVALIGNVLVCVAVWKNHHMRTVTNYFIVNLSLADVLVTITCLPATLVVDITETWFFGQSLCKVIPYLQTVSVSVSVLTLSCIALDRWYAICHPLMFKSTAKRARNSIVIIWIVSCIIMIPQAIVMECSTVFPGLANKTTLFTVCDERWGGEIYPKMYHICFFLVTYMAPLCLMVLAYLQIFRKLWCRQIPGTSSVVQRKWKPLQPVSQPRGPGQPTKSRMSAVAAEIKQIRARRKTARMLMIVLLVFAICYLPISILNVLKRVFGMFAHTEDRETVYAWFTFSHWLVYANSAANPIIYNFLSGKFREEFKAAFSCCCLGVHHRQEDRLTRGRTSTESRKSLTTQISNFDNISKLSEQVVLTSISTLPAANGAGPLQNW
Description: (§1) The antagonist activity of a test compound against the human orexin 1 receptor (hOX1R) or orexin 2 receptor (hOX2R) was measured by the method described in the document (Toshikatsu Okumura et al., Biochemical and Biophysical Research Communications, 280, 976-981, 2001) with appropriate modification. Chinese hamster ovary (CHO) cells forcibly expressing hOX1R or hOX2R were seeded into each well of a 96-well Black clear bottom plate (Nunc A/S) in the amount of 20000 cells per well and were cultured in a Ham's F-12 medium (Invitrogen, Inc.) containing 0.1 mM MEM non-essential amino acids (Invitrogen, Inc.), 0.5 mg/mL G418 (Invitrogen, Inc.), and 10% fetal calf serum (Invitrogen, Inc.) at 37° C. in 5% CO2 for 16 hours. The medium was removed, and then added to each well was 100 μL of an assay buffer (pH 7.4) containing 0.5 μM Fluo 4-AM ester (Dojindo Laboratories), wherein the buffer was composed of 25 mM HEPES (Dojindo Laboratories), a Hanks' balanced salt solution (Invitrogen, Inc.), 0.1% bovine serum albumin (Sigma-Aldrich Co., LLC.), 2.5 mM probenecid (Sigma-Aldrich Co., LLC.), and 200 μg/mL Amaranth (Sigma-Aldrich Co., LLC.), followed by incubation at 37° C. in 5% CO2 for 60 min. The assay buffer containing Fluo 4-AM ester was removed, and then 150 μL of an assay buffer solution containing 10 mM of the test compound dissolved in dimethyl sulfoxide was added to each well, followed by incubation for 30 min.
(§2) A peptide (Pyr-[…]NH2: Peptide Institute, Inc.), which is a ligand having substitution of two amino acids in human orexin-A, was diluted with an assay buffer to a final concentration of 300 pM for hOX1R and to a final concentration of 3 nM for hOX2R. The reaction was started by adding 50 μL of this ligand solution to each well. The reaction was monitored by measuring the fluorescence of each well at each 1 second for 3 min with a Functional Drug Screening System (FDSS manufactured by Hamamatsu Photonics K.K.), and the antagonist activity was determined based on the maximum fluorescence value as an index of the intracellular Ca^2+ concentration. The antagonist activity of a test compound was calculated by assuming that the fluorescence value of the well containing only a dilution buffer was 100% and that the fluorescence value of the well containing a buffer not containing the ligand or any test compound was 0%. The 50% inhibitory concentration (IC50 value) of a test compound was determined from fluorescence values at various concentrations of the test compound.

[2] = molecular target: T2, human orexin 1 receptor (hOX1R) (Homo sapiens, UniProt O43613); assay: Measurement of orexin antagonist activity (intracellular Ca2+ fluorescence, FDSS) in CHO cells expressing hOX1R; type: cell-based; details: CHO cells forcibly expressing hOX1R; ligand (two-amino-acid-substituted human orexin-A) 300 pM; Fluo 4-AM; read-out: IC50 value OX1
T2 construct: expressed in transfected cells; host or cells: Chinese hamster ovary (CHO) cells
T2 sequence (O43613 1-425): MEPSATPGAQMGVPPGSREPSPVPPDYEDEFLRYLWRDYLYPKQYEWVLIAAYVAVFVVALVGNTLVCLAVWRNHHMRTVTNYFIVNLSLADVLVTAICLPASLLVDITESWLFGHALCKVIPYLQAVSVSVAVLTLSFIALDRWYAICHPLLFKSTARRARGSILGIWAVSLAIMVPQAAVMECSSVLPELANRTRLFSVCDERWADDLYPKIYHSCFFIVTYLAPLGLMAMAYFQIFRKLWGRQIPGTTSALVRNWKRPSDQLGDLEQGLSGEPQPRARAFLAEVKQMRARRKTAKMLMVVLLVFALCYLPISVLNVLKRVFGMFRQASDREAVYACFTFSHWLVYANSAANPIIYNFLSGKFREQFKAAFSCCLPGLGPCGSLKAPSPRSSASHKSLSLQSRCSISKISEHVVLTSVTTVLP
Description: as §1, §2

SMILES	IC50 [1] [nM]	IC50 [2] [nM]
CCN(CCc1noc(-c2ccc(F)cc2)n1)C(=O)c1ccccc1-n1nccn1 [Example 41, N-ethyl-N-{2-[5-(4-fluorophenyl)-1,2,4-oxadiazol-3-yl]ethyl}-2-(2H-1,2,3-triazol-2-yl) benzamide]	31.6	1.6
CN(CCc1noc(-c2ccc(F)cn2)n1)C(=O)c1ccccc1-n1nccn1 [Example 33, N-{2-[5-(5-fluoropyridin-2-yl)-1,2,4-oxadiazol-3-yl]ethyl}-N-methyl-2-(2H-1,2,3-triazol-2-yl) benzamide]	2530	1190
CCN(CCc1noc(-c2ccc(F)cn2)n1)C(=O)c1ccccc1-n1nccn1 [Example 44, N-ethyl-N-{2-[5-(5-fluoropyridin-2-yl)-1,2,4-oxadiazol-3-yl]ethyl}-2-(2H-1,2,3-triazol-2-yl) benzamide]	613	791
CN(CCc1ccn(-c2ccc(F)cn2)n1)C(=O)c1cc(Cl)ccc1-n1nccn1 [Example 16, 5-Chloro-N-{2-[1-(5-fluoropyridin-2-yl)-1H-pyrazol-3-yl]ethyl}-N-methyl-2-(2H-1,2,3-triazol-2-yl)benzamide]	30.5	3.3
CCN(CCc1noc(-c2ccc(F)cn2)n1)C(=O)c1cc(C)ccc1-c1ncccn1 [Example 45, N-ethyl-N-{2-[5-(5-fluoropyridin-2-yl)-1,2,4-oxadiazol-3-yl]ethyl}-5-methyl-2-(pyrimidin-2-yl)benzamide]	159	163
CN(CCc1noc(-c2ccc(F)cc2)n1)C(=O)c1ccccc1-n1nccn1 [Example 31, N-{2-[5-(4-Fluorophenyl)1,2,4-oxadiazol-3-yl]ethyl}-N-methyl-2-(2H-1,2,3-triazol-2-yl)benzamide]	114	11.6
CCN(CCc1noc(-c2ccc(F)c(F)c2)n1)C(=O)c1cc(F)ccc1-c1ncccn1 [Example 43, N-{2-[5-(3,4-difluorophenyl)-1,2,4-oxadiazol-3-yl]ethyl}-N-ethyl-5-fluoro-2-(pyrimidin-2-yl) benzamide]	69.8	61
CCN(CCc1noc(-c2ccc(F)cc2)n1)C(=O)c1cc(F)ccc1-c1ncccn1 [Example 40, N-ethyl-5-fluoro-N-{2-[5-(4-fluorophenyl)-1,2,4-oxadiazol-3-yl]ethyl}-2-(pyrimidin-2-yl) benzamide]	78	1.7
Cc1ccc(-n2nccn2)c(C(=O)N(C)CCc2noc(-c3ccc(F)cn3)n2)c1 [Example 34, N-{2-[5-(5-fluoropyridin-2-yl)-1,2,4-oxadiazol-3-yl]ethyl}-N,5-dimethyl-2-(2H-1,2,3-triazol-2-yl)benzamide]	119	83.4
CCN(CCc1cc(-c2ccc(F)cn2)no1)C(=O)c1cc(C)ccc1-n1nccn1 [Example 11, N-Ethyl-N-{2-[3-(5-fluoropyridin-2-yl)-1,2-oxazol-5-yl]ethyl}-5-methyl-2-(2H-1,2,3-triazol-2-yl)benzamide]	26.4	17
CCN(CCc1noc(-c2ccc(F)cn2)n1)C(=O)c1cc(F)ccc1-c1ncccn1 [Example 46, N-ethyl-5-fluoro-N-{2-[5-(5-fluoropyridin-2-yl)-1,2,4-oxadiazol-3-yl]ethyl}-2-(pyrimidin-2-yl) benzamide]	1230	974

These reach a lower IC50 [1]. Values come first.

IC50 [1] [nM]	IC50 [2] [nM]	SMILES
10.3	3	CCN(CCc1ccn(-c2cccc(C)n2)n1)C(=O)c1ccccc1-n1nccn1 [Example 23, N-ethyl-N-{2-[1-(6-methylpyridin-2-yl)-1H-pyrazol-3-yl]ethyl}-2-(2H-1,2,3-triazol-2-yl) benzamide]
8	2.1	Cc1ccc(-n2nccn2)c(C(=O)N(C)CCc2ccn(-c3ccc(F)cn3)n2)c1 [Example 5, N-{2-[1-(5-Fluoropyridin-2-yl)-1H-pyrazol-3-yl]ethyl}-N,5-dimethyl-2-(2H-1,2,3-triazol-2-yl)benzamide]
2.4	0.5	CCN(CCc1ccn(-c2ccc(F)cn2)n1)C(=O)c1ccccc1-n1nccn1 [Example 4, N-Ethyl-N-{2-[1-(5-fluoropyridin-2-yl)-1H-pyrazol-3-yl]ethyl}-2-(2H-1,2,3-triazol-2-yl)benzamide]
3.4	8.9	CCN(CCc1cn(-c2ccc(F)cn2)cn1)C(=O)c1cc(C)ccc1-n1nccn1 [Example 13, N-Ethyl-N-{2-[1-(5-fluoropyridin-2-yl)-1H-imidazol-4-yl]ethyl}-5-methyl-2-(2H-1,2,3-triazol-2-yl)benzamide]
5.9	1.9	Cc1ccc(-n2nccn2)c(C(=O)N(C)CCc2noc(-c3ccc(F)c(F)c3)n2)c1 [Example 36]
24.8	17.8	CCN(CCc1ccn(-c2cccc(C(F)(F)F)n2)n1)C(=O)c1ccccc1-n1nccn1 [Example 24, N-ethyl-2-(2H-1,2,3-triazol-2-yl)-N-(2-{1-[6-(trifluoromethyl)pyridin-2-yl]-1H-pyrazol-3-yl}ethyl)benzamide]
2.8	0.4	CCN(CCc1ccn(-c2ccc(F)cn2)n1)C(=O)c1ccc(F)cc1-n1nccn1 [Example 17, N-Ethyl-4-fluoro-N-{2-[1-(5-fluoropyridin-2-yl)-1H-pyrazol-3-yl]ethyl}-2-(2H-1,2,3-triazol-2-yl)benzamide]
11.2	1.3	CCN(CCc1ccn(-c2ccc(F)c(F)c2)n1)C(=O)c1cc(F)ccc1-c1ncccn1 [Example 29, N-{2-[1-(3,4-difluorophenyl)-1H-pyrazol-3-yl]ethyl}-N-ethyl-5-fluoro-2-(pyrimidin-2-yl) benzamide]
3.3	1.6	CCN(CCc1ccn(-c2ccc(F)c(F)c2)n1)C(=O)c1ccccc1-n1nccn1 [Example 25, N-{2-[1-(3,4-difluorophenyl)-1H-pyrazol-3-yl]ethyl}-N-ethyl-2-(2H-1,2,3-triazol-2-yl) benzamide]
10.8	9.7	CCN(CCc1noc(-c2ccc(F)c(F)c2)n1)C(=O)c1ccccc1-n1nccn1 [Example 42, N-ethyl-N-{2-[5-(3,4-difluorophenyl)-1,2,4-oxadiazol-3-yl]ethyl}-2-(2H-1,2,3-triazol-2-yl) benzamide]
2	1.1	CCN(CCc1noc(-c2ccc(F)c(F)c2)n1)C(=O)c1cc(C)ccc1-n1nccn1 [Example 37, N-ethyl-N-{2-[5-(3,4-difluorophenyl)-1,2,4-oxadiazol-3-yl]ethyl}-5-methyl-2-(2H-1,2,3-triazol-2-yl)benzamide]
8.5	0.7	Cc1ccc(-n2nccn2)c(C(=O)N(C)CCc2cnn(-c3ccc(F)cn3)c2)c1 [Example 2, N-{2-[1-(5-Fluoropyridin-2-yl)-1H-pyrazol-4-yl]ethyl}-N,5-dimethyl-2-(2H-1,2,3-triazol-2-yl)benzamide]
